# Data: PubChem BioAssay (NCI)
#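 96-well plates; 48 h exposure; 5 concentrations. Endpoints by linear interpolation between flanking doses. Not reached: highest tested concentration assigned. At the GI50, growth is halved. TGI is the concentration that stops growth completely.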
# Key:
# Test in all cases: DTP human tumour cell line panel, 48 h
# [1] = test system: COLO 205 colon
# [2] = test system: K-562 leukemia
# [3] = test system: MCF7 breast
# [4] = test system: NCI-H226 lung
# [5] = test system: NCI-H522 lung
# [6] = test system: OVCAR-4 ovarian
# [7] = test system: PC-3 prostate
# [8] = test system: SF-268 CNS
# [9] = test system: SF-295 CNS
# [10] = test system: SF-539 CNS
# [11] = test system: SK-MEL-5 melanoma
# [12] = test system: SN12C renal
# [13] = test system: SNB-19 CNS
# [14] = test system: UACC-62 melanoma
Structure (SMILES),TGI [1] [µM],TGI [2] [µM],TGI [3] [µM],TGI [4] [µM],TGI [5] [µM],TGI [6] [µM],TGI [7] [µM],TGI [8] [µM],TGI [9] [µM],TGI [10] [µM],TGI [11] [µM],TGI [12] [µM],TGI [13] [µM],TGI [14] [µM],GI50 [2] [µM],GI50 [3] [µM],GI50 [9] [µM],GI50 [11] [µM]
NC(=O)NC(=O)c1cccc(NC(=O)CCl)c1,2.2,> 43.4,9.32,5.28,3.32,25.7,11.6,8.29,7.71,1.5,2.07,4.8,> 26.1,2.63,,,,
COc1cc(-c2ccccc2)cn2c1nc1ccccc12,39.1,67.1,35.4,39.7,40.6,,50.8,79.4,,50.4,37.9,46.2,69.3,43.9,,,,
CC(C)CC1NC(=O)CCC(NC(=O)C(Cc2ccc(O)cc2)NC(=O)OCc2ccccc2)C(=O)NC(Cc2ccccc2)C(=O)NC(Cc2ccccc2)NC1=O (stereo not given),> 100,> 100,> 100,> 100,,> 100,> 100,> 100,> 100,> 100,> 100,> 100,> 100,> 100,,,,
CC1(C)CCC[C@@]2(C)C1CC[C@@]1(CO1)[C@@H]2/C=C\C(C=O)CC=O (stereo not given in full),> 100,> 69.5,> 100,> 100,> 100,> 100,> 100,> 100,> 100,> 100,> 100,> 100,> 100,> 100,,,,
O=Cc1ccc(-c2ccc(S(=O)(=O)O)cc2)o1,> 100,> 100,> 100,> 100,> 100,,> 100,> 100,> 100,> 100,> 100,> 100,> 100,> 100,,,,
N[C@H]1CCN(c2c(F)cc3c(=O)c(C(=O)O)cn4c3c2Oc2c-4ccc3c2ccc2ccccc23)C1,> 100,,> 100,> 100,,> 33.2,> 47.3,,> 100,> 100,> 100,> 100,> 100,> 100,,,,
C[C@]12CC[C@H](O)CC1=CC[C@@H]1[C@@H]2CC[C@]2(C)NC(=O)/C(=C\c3ccccc3)C[C@@H]12,31.9,> 100,47.3,34.3,23.1,60.8,29.5,30.7,33.2,30.2,25.7,66,27.8,38.6,,,,
CN1N=C(c2ccccc2)c2cc(Cl)ccc2N=C1N/N=C/c1ccc(N(C)C)cc1,> 100,> 100,> 100,> 100,> 100,> 100,> 100,> 100,> 100,> 100,> 100,> 100,> 100,> 100,,,,
Cc1nn(C(=O)c2ccc(Cl)cc2)c2c1C(c1ccc(Cl)cc1)SC(N)=N2 (stereo not given),> 10,> 10,> 10,> 10,> 10,> 10,> 10,> 10,> 10,> 10,> 10,> 10,> 10,> 10,,,,
COc1ccc2[nH]c3c(O)c(-c4c(C)cc5c([nH]c6ccc(OC)cc65)c4O)c(C)cc3c2c1,,8.13,8.43,9.06,9.2,7.22,7.69,8.06,8.86,8.81,8.18,8.17,8.72,,4.04,4.49,5.11,4.34
COc1cc(OC)nc(-n2c(N)c(C(=O)O)c3ccc([N+](=O)[O-])cc3c2=O)n1,> 100,> 100,> 100,> 100,> 100,> 100,> 100,> 100,> 100,,> 100,> 100,> 100,> 100,,,,
O=C1NC(N2CCCCC2)=N/C1=C\c1ccco1,> 100,,> 100,> 100,> 100,> 100,> 100,> 100,> 100,> 100,> 100,> 100,> 100,> 100,,,,
c1cc2c3ccsc3c3sccc3c2s1,> 100,> 100,> 100,> 100,,> 100,> 100,> 100,> 100,> 100,> 100,> 100,,> 100,,,,
COc1cc(/C=N/n2c(C)n[nH]c2=O)cc(OC)c1OC,> 100,> 100,> 100,> 100,,> 100,> 100,> 100,> 100,> 100,,> 100,> 100,> 100,,,,
Nn1c(CCCCCCCCc2n[nH]c(=S)n2N)n[nH]c1=S,> 100,> 100,> 100,> 100,> 100,> 100,> 100,> 100,> 100,> 100,,> 100,> 100,> 100,,,,
Cc1ccc2c(c1)CC1(C2)Cc2ccc(C)cc2C1=O (stereo not given),44.3,> 100,89,61.6,61.3,> 100,> 100,> 100,> 100,87.3,26,> 100,> 100,,,,,
Oc1ccc(/C=N/c2nccs2)c(O)c1,92.1,,> 100,> 100,> 100,,> 100,> 100,> 100,> 100,> 100,,> 100,> 100,,,,

Structure (SMILES),TGI [1] [µM],TGI [2] [µM],TGI [3] [µM],TGI [4] [µM],TGI [5] [µM],TGI [6] [µM],TGI [7] [µM],TGI [8] [µM],TGI [9] [µM],TGI [10] [µM],TGI [11] [µM],TGI [12] [µM],TGI [13] [µM],TGI [14] [µM],GI50 [2] [µM],GI50 [3] [µM],GI50 [9] [µM],GI50 [11] [µM]
COC1OC(Cn2cc([N+](=O)[O-])nc2C)C(O)C(O)C1O (stereo not given),> 100,> 100,> 100,,> 100,> 100,> 100,,> 100,,> 100,,> 100,> 100,,,,
C[C@H]1S[C@H](c2c(F)cccc2F)n2c1nc1ccccc12,> 100,> 100,> 100,> 100,,> 100,> 100,> 100,> 100,,45.3,> 100,> 100,> 100,,,,
COC(=O)[C@@H]1[C@H]2CC[C@]3(C)[C@@H](OC(C)=O)CC[C@H]3[C@@H]2CC[C@H]1C(C)=O,> 100,> 100,> 100,> 100,> 100,,> 100,> 100,> 100,> 100,> 100,> 100,> 100,> 100,,,,
O=c1[nH]c(=O)n(C2CC(O)C(COP(=O)(OCC(Cl)(Cl)Cl)OCC(Cl)(Cl)Cl)O2)cc1F (stereo not given),> 100,> 100,> 100,> 100,> 34.8,> 100,> 100,> 100,> 100,,> 100,> 100,> 100,> 100,,,,
CCOC(=O)CCc1ccc(NC(=O)/C=C/c2ccc([N+](=O)[O-])o2)cc1,5.29,,32.4,25.5,0.548,> 100,> 29.9,7.63,28.7,3.99,3.49,4.26,> 71.6,> 20.5,,,,
COC(=O)CNC(=O)CSc1nnc(COc2ccc(Cl)cc2)n1-c1ccccc1,> 100,> 100,> 100,> 100,34.7,> 100,51.2,46.6,> 100,> 100,,38.5,> 100,> 100,,,,
COc1nc2c(c(=O)[nH]1)N=C(c1ccc(Cl)cc1)CC(c1ccccc1)N2 (stereo not given),> 100,67.1,> 100,> 100,48.6,57.4,> 100,,70.7,42.1,36.8,47.1,> 100,46.6,,,,
CCOC(=O)c1nc2cc(F)cc(F)c2[nH]c1=O,> 100,> 100,> 100,> 100,,> 100,> 100,> 100,> 100,> 100,> 100,> 100,> 100,> 100,,,,
COC(=O)[C@H](C)N(C)C(=O)[C@H](C)N1[C@@H](c2ccccc2)COC1(C)C,> 100,> 100,> 100,> 100,> 100,> 100,> 100,> 100,> 100,> 100,> 100,,> 100,> 100,,,,
CC[C@]1(Cc2ccc(OC)c(OC)c2)C=[N+]([O-])O[C@H](OCc2ccccc2)[C@@H]1OC(C)=O,34.5,56.8,> 100,53.8,28.5,95.6,64.3,70.9,> 100,,> 100,,> 100,> 100,,,,
Cc1ccc(O)c(C(c2cc(C)ccc2O)c2cc([N+](=O)[O-])ccc2O)c1,45.9,> 100,33.8,55.8,30,28.3,21.3,24.6,36.9,33.9,> 100,28.3,,36.6,,,,
COC1C(=O)N(SC)C1c1ccccc1Cl (stereo not given),> 100,66.2,43,,33.5,30.3,> 100,> 100,> 100,35.2,> 100,47.3,> 100,> 100,,,,
CCOc1nc2sc3c(c2c(=O)n1CCSSCCn1c(OCC)nc2sc4c(c2c1=O)CCCC4)CCCC3,> 100,> 100,> 100,> 100,,> 100,> 100,> 100,> 100,> 100,> 100,> 100,> 100,> 100,,,,
Cc1cc(S(=O)(=O)NC2=NCC(C)(C)CN2)c(S)cc1Cl,> 100,80.5,> 100,94.8,81.2,64.5,> 100,> 100,,> 100,33.7,> 100,> 100,61.9,,,,
COc1cccc(CCn2c(N)c(C#N)c3ccc([N+](=O)[O-])cc3c2=O)c1,> 100,11.6,> 31.6,> 31.6,,> 100,> 46.4,> 46.4,> 31.6,,> 100,> 100,> 100,> 31.6,,,,
CCN1C/C(=C\c2ccc(Cl)cc2)c2[nH]c(=O)c(C#N)c(-c3ccc(Cl)cc3)c2C1,> 100,> 100,> 100,> 100,,> 100,> 100,> 100,,> 100,> 100,> 100,> 100,> 100,,,,
CCCC(C(=O)Nc1cccc2[nH]cnc12)C(=O)OCC (stereo not given),,> 100,> 100,> 100,> 100,> 100,> 100,> 100,> 100,> 100,,> 100,> 100,> 100,,,,
